PubChem BioAssay (NCI)
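Abbreviation: GI50, concentration required for 50% inhibition of growth. TGI: concentration producing complete growth inhibition.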

Legend:
Experiment in all cases: DTP human tumour cell line panel, 384-well format
[1] = system: 786-0 renal
[2] = system: A549 NSCLC
[3] = system: ACHN renal
[4] = system: CAKI-1 renal
[5] = system: CCRF-CEM leukemia
[6] = system: COLO 205 colon
[7] = system: DU-145 prostate
[8] = system: EKVX NSCLC
[9] = system: HCT-116 colon
[10] = system: HCT-15 colon
[11] = system: HL-60(TB) leukemia
[12] = system: HOP-62 NSCLC
[13] = system: HOP-92 NSCLC
[14] = system: HS 578T breast
[15] = system: HT29 colon
[16] = system: K-562 leukemia
[17] = system: LOX IMVI melanoma
[18] = system: M14 melanoma
[19] = system: MALME-3M melanoma
[20] = system: MDA-MB-468 breast
[21] = system: NCI-H226 lung
[22] = system: NCI-H23 lung
[23] = system: NCI-H322M lung
[24] = system: NCI-H460 NSCLC
[25] = system: NCI/ADR-RES ovarian
[26] = system: OVCAR-3 ovarian
[27] = system: OVCAR-4 ovarian
[28] = system: OVCAR-5 ovarian
[29] = system: OVCAR-8 ovarian
[30] = system: PC-3 prostate
[31] = system: RXF 393 renal
[32] = system: SF-268 CNS
[33] = system: SF-295 CNS
[34] = system: SF-539 CNS
[35] = system: SK-MEL-2 melanoma
[36] = system: SK-MEL-28 melanoma
[37] = system: SK-MEL-5 melanoma
[38] = system: SN12C renal
[39] = system: SNB-19 CNS
[40] = system: SNB-75 CNS
[41] = system: SW-620 colon
[42] = system: T-47D breast
[43] = system: TK-10 renal
[44] = system: U251 glioblastoma
[45] = system: UACC-257 melanoma
[46] = system: UACC-62 melanoma
[47] = system: UO-31 renal

Cc1cc(Nc2cc(N)ncn2)c(=O)n2c1C(=O)NC21CCCCC1 showed a GI50 [1] of over 100 µM, a TGI [1] of over 100 µM and a GI50 [2] of over 100 µM. The TGI [2] was over 100 µM, the GI50 [3] was over 100 µM and the TGI [3] was over 100 µM. The GI50 [4] was over 100 µM, the TGI [4] was over 100 µM and the GI50 [5] was over 100 µM. The TGI [5] was over 100 µM, the GI50 [6] was over 100 µM and the TGI [6] was over 100 µM. The GI50 [7] was over 100 µM, the TGI [7] was over 100 µM and the GI50 [8] was over 100 µM. The TGI [8] was over 100 µM, the GI50 [9] was over 100 µM and the TGI [9] was over 100 µM. It also gave a GI50 [10] of over 100 µM, a TGI [10] of over 100 µM and a GI50 [11] of over 100 µM. The TGI [11] was over 100 µM, the GI50 [12] was over 100 µM and the TGI [12] was over 100 µM. For the same compound, the GI50 [13] was over 23.2 µM, the TGI [13] was over 100 µM and the GI50 [14] was over 100 µM. The TGI [14] was over 100 µM, the GI50 [15] was over 100 µM and the TGI [15] was over 100 µM. It also gave a GI50 [16] of over 100 µM, a TGI [16] of over 100 µM and a GI50 [17] of over 100 µM. The TGI [17] was over 100 µM, the GI50 [18] was over 100 µM and the TGI [18] was over 100 µM. The GI50 [19] was over 100 µM, the TGI [19] was over 100 µM and the GI50 [20] was over 100 µM. It also gave a TGI [20] of over 100 µM, a GI50 [21] of over 100 µM and a TGI [21] of over 100 µM. For the same compound, the GI50 [22] was over 100 µM, the TGI [22] was over 100 µM and the GI50 [23] was over 100 µM. The TGI [23] was over 100 µM, the GI50 [24] was over 100 µM and the TGI [24] was over 100 µM. The GI50 [25] was over 100 µM, the TGI [25] was over 100 µM and the GI50 [26] was over 100 µM. It also gave a TGI [26] of over 100 µM, a GI50 [27] of over 100 µM and a TGI [27] of over 100 µM. It also gave a GI50 [28] of over 100 µM, a TGI [28] of over 100 µM and a GI50 [29] of over 100 µM. For the same compound, the TGI [29] was over 100 µM, the GI50 [30] was over 100 µM and the TGI [30] was over 100 µM. For the same compound, the GI50 [31] was over 100 µM, the TGI [31] was over 100 µM and the GI50 [32] was over 100 µM. It also gave a TGI [32] of over 100 µM, a GI50 [33] of over 100 µM and a TGI [33] of over 100 µM. It also gave a GI50 [34] of over 100 µM, a TGI [34] of over 100 µM and a GI50 [35] of over 100 µM. For the same compound, the TGI [35] was over 100 µM, the GI50 [36] was over 100 µM and the TGI [36] was over 100 µM. It also gave a GI50 [37] of over 100 µM, a TGI [37] of over 100 µM and a GI50 [38] of over 100 µM. It also gave a TGI [38] of over 100 µM, a GI50 [39] of over 100 µM and a TGI [39] of over 100 µM. The GI50 [40] was over 100 µM, the TGI [40] was over 100 µM and the GI50 [41] was over 100 µM. The TGI [41] was over 100 µM, the GI50 [42] was over 100 µM and the TGI [42] was over 100 µM. The GI50 [43] was over 100 µM, the TGI [43] was over 100 µM and the GI50 [44] was over 100 µM. It also gave a TGI [44] of over 100 µM, a GI50 [45] of over 100 µM and a TGI [45] of over 100 µM. For the same compound, the GI50 [46] was over 100 µM, the TGI [46] was over 100 µM and the GI50 [47] was over 100 µM. It also gave a TGI [47] of over 100 µM.
